Active and inactive are the calls of the source. Unless noted, no cut-off for these calls is given here.
What was measured:
Bcl-2-like protein 1 [1] = target: T1, Bcl-2-like protein 1 (Homo sapiens, UniProt Q07817); assay: Binding affinity to full length human Bcl-xl expressed in Escherichia coli BL21 (DE3) at 100 uM preincubated for 30 mins followed by 5-FAM-QEDIIIINIARHLAQVGDSMD-RSIPPG tracer addition and measured after 20 mins by fluorescence polarization assay relative to control; details: time 50.0 min
HL-60 [2] = assay: Cytotoxicity against human HL-60 cells assessed as cell viability at 20 uM incubated for 48 hrs by CCK8 assay relative to control; type: functional; details: read-out: Activity
HeLa [3] = assay: cells; details: Homo sapiens, 48 h
Description: Cytotoxicity against human HeLa cells assessed as inhibition of cell growth incubated for 48 hrs by CCK8 assay

RS4-11 [4] = assay: cells; details: Homo sapiens, RS4-11, 48 h
Description: Cytotoxicity against human RS4-11 cells assessed as inhibition of cell growth incubated for 48 hrs by CCK8 assay

[5] = Cytotoxicity against HEK293T cells assessed as cell viability at 20 uM incubated for 48 hrs by CCK8 assay relative to control; type: cell-based, HEK-293T; details: human, read-out: Activity
[6] = target: T2, Induced myeloid leukemia cell differentiation protein Mcl-1 (Homo sapiens, UniProt Q07820); assay: Binding affinity to full length human MCL1 expressed in Escherichia coli BL21 (DE3) at 100 uM preincubated for 30 mins followed by 5-FAM-QEDIIIINIARHLAQVGDSMD-RSIPPG tracer addition and measured after 20 mins by fluorescence polarization assay relative to control; details: time 50.0 min
[7] = target: T3, Apoptosis regulator Bcl-2 (Homo sapiens, UniProt P10415); assay: Binding affinity to full length human Bcl-2 expressed in Escherichia coli BL21 (DE3) at 100 uM preincubated for 30 mins followed by 5-FAM-QEDIIIINIARHLAQVGDSMD-RSIPPG tracer addition and measured after 20 mins by fluorescence polarization assay relative to control; details: time 50.0 min
HeLa [8] = assay: Cytotoxicity against human HeLa cells assessed as cell viability at 20 uM incubated for 48 hrs by CCK8 assay relative to control; type: functional; details: read-out: Activity
HL-60 [9] = assay: cells; details: Homo sapiens, HL-60, 48 h
Description: Cytotoxicity against human HL-60 cells assessed as inhibition of cell growth incubated for 48 hrs by CCK8 assay

HEK-293T = assay: Cytotoxicity against HEK293T cells assessed as reduction in cell viability incubated for 48 hrs by CCK8 assay; details: Homo sapiens
[10] = target: T2, Induced myeloid leukemia cell differentiation protein Mcl-1; assay: Binding affinity to 15N-labeled human MCL1 (172 to 327 residues) expressed in Escherichia coli BL21 (DE3) assessed as chemical shift at R263 residue at 0.3 mM incubated for 1 hr by 15N HSQC NMR spectroscopy analysis
[11] = target: T2, Induced myeloid leukemia cell differentiation protein Mcl-1; assay: Binding affinity to 15N-labeled human MCL1 (172 to 327 residues) expressed in Escherichia coli BL21 (DE3) assessed as chemical shift at M250 residue at 0.3 mM incubated for 1 hr by 15N HSQC NMR spectroscopy analysis
[12] = target: T2, Induced myeloid leukemia cell differentiation protein Mcl-1; assay: Binding affinity to 15N-labeled human MCL1 (172 to 327 residues) expressed in Escherichia coli BL21 (DE3) assessed as chemical shift at M231 residue at 0.3 mM incubated for 1 hr by 15N HSQC NMR spectroscopy analysis
[13] = target: T2, Induced myeloid leukemia cell differentiation protein Mcl-1; assay: Binding affinity to 15N-labeled human MCL1 (172 to 327 residues) expressed in Escherichia coli BL21 (DE3) assessed as chemical shift at H224 residue at 0.3 mM incubated for 1 hr by 15N HSQC NMR spectroscopy analysis
[14] = target: T2, Induced myeloid leukemia cell differentiation protein Mcl-1; assay: Binding affinity to 15N-labeled human MCL1 (172 to 327 residues) expressed in Escherichia coli BL21 (DE3) assessed as chemical shift at L235 residue at 0.3 mM incubated for 1 hr by 15N HSQC NMR spectroscopy analysis
[15] = target: T2, Induced myeloid leukemia cell differentiation protein Mcl-1; assay: Binding affinity to 15N-labeled human MCL1 (172 to 327 residues) expressed in Escherichia coli BL21 (DE3) assessed as chemical shift at F228 residue at 0.3 mM incubated for 1 hr by 15N HSQC NMR spectroscopy analysis
[16] = target: T3, Apoptosis regulator Bcl-2; assay: Binding affinity to full length human Bcl-2 expressed in Escherichia coli BL21 (DE3) at up to 100 uM preincubated for 30 mins followed by 5-FAM-QEDIIIINIARHLAQVGDSMD-RSIPPG tracer addition and measured after 20 mins by fluorescence polarization assay; details: dose microM <=100, time 50.0 min
[17] = target: T2, Induced myeloid leukemia cell differentiation protein Mcl-1; assay: Binding affinity to full length human MCL1 expressed in Escherichia coli BL21 (DE3) assessed as inhibition constant preincubated for 30 mins followed by 5-FAM-QEDIIIINIARHLAQVGDSMD-RSIPPG tracer addition and measured after 20 mins by fluorescence polarization assay
Bcl-2-like protein 1 [18] = target: T1, Bcl-2-like protein 1; assay: Binding affinity to full length human Bcl-xl expressed in Escherichia coli BL21 (DE3) at up to 100 uM preincubated for 30 mins followed by 5-FAM-QEDIIIINIARHLAQVGDSMD-RSIPPG tracer addition and measured after 20 mins by fluorescence polarization assay; details: dose microM <=100, time 50.0 min
[19] = target: T3, Apoptosis regulator Bcl-2; assay: Binding affinity to full length human Bcl-2 expressed in Escherichia coli BL21 (DE3) assessed as inhibition constant preincubated for 30 mins followed by 5-FAM-QEDIIIINIARHLAQVGDSMD-RSIPPG tracer addition and measured after 20 mins by fluorescence polarization assay
Bcl-2-like protein 1 [20] = target: T1, Bcl-2-like protein 1; assay: Binding affinity to full length human Bcl-xl expressed in Escherichia coli BL21 (DE3) assessed as inhibition constant preincubated for 30 mins followed by 5-FAM-QEDIIIINIARHLAQVGDSMD-RSIPPG tracer addition and measured after 20 mins by fluorescence polarization assay
[21] = target: Induced myeloid leukemia cell differentiation protein Mcl-1/Bcl-2-like protein 11 (Homo sapiens) (UniProt Q07820+O43521); assay: Inhibition of MCL1/Bim interaction in human MCF7 cells assessed as disruption of MCL1/Bim complex at 10 uM measured after 24 hrs by co-immunoprecipitation based western blot analysis relative to control; type: cell-based
RS4-11 [22] = assay: Induction of apoptosis in human RS4-11 cells assessed as increase in cleaved caspase 3 expression incubated for 48 hrs by western blot analysis; type: functional, cell-based
MCF7 = assay: Inhibition of Bcl-2/Bim interaction in human MCF7 cells assessed as disruption of Bcl-2/Bim complex at 10 uM measured after 24 hrs by co-immunoprecipitation based western blot analysis relative to control; type: cell-based
RS4-11 [23] = assay: Induction of apoptosis in human RS4-11 cells assessed as late apoptotic cells at 20 uM measured after 24 hrs by Annexin V/7-AAD and MitoSense Red staining based flow cytometry analysis relative to control (reference value: 0.99 %); type: functional
RS4-11 [24] = assay: Induction of apoptosis in human RS4-11 cells assessed as early apoptotic cells at 20 uM measured after 24 hrs by Annexin V/7-AAD and MitoSense Red staining based flow cytometry analysis relative to control (reference value: 3.75 %); type: functional
RS4-11 [25] = assay: Induction of apoptosis in human RS4-11 cells assessed as increase in cleaved PARP expression incubated for 48 hrs by western blot analysis; type: functional, cell-based
RS4-11 [26] = assay: Induction of apoptosis in human RS4-11 cells assessed as necrotic cells at 20 uM measured after 24 hrs by Annexin V/7-AAD and MitoSense Red staining based flow cytometry analysis relative to control (reference value: 1.11 %); type: functional
RS4-11 [27] = assay: Induction of apoptosis in human RS4-11 cells assessed as viable cells at 20 uM measured after 24 hrs by Annexin V/7-AAD and MitoSense Red staining based flow cytometry analysis relative to control (reference value: 94.15 %); type: functional; details: read-out: Activity
RS4-11 [28] = assay: Induction of apoptosis in human RS4-11 cells assessed as increase in cleaved caspase 9 expression incubated for 48 hrs by western blot analysis; type: functional, cell-based
RS4-11 [29] = assay: Cytotoxicity against human RS4-11 cells assessed as cell viability at 20 uM incubated for 48 hrs by CCK8 assay relative to control; type: functional; details: read-out: Activity
[30] = target: T2, Induced myeloid leukemia cell differentiation protein Mcl-1; assay: Binding affinity to full length human MCL1 expressed in Escherichia coli BL21 (DE3) at up to 100 uM preincubated for 30 mins followed by 5-FAM-QEDIIIINIARHLAQVGDSMD-RSIPPG tracer addition and measured after 20 mins by fluorescence polarization assay; details: dose microM <=100, time 50.0 min

T1 sequence (Q07817 whole entry): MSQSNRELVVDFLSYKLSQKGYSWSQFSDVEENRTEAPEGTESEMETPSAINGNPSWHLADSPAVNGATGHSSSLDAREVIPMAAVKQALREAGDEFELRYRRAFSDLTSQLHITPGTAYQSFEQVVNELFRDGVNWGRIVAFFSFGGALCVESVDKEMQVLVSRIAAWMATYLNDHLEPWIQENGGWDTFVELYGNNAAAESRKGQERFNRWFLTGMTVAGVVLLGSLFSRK
T3 sequence (P10415 whole entry): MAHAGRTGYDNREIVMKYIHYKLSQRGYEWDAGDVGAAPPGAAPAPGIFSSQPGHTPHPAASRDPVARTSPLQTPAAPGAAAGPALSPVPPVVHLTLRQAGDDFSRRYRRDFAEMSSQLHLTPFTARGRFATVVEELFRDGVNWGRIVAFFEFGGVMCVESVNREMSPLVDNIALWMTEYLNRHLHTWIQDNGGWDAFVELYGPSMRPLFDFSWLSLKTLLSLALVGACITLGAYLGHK
T2 sequence (Q07820 whole entry): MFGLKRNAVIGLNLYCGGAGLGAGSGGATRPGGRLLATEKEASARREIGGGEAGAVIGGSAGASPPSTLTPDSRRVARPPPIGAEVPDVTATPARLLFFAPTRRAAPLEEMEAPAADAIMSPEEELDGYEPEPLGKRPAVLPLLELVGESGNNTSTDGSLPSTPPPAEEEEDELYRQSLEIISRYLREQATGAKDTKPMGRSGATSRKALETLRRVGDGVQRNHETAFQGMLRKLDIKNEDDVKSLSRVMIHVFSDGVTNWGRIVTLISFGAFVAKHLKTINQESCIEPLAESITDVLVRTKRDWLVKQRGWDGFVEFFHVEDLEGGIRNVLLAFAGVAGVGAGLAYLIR
Chain of Induced myeloid leukemia cell differentiation protein Mcl-1/Bcl-2-like protein 11 (Homo sapiens) (O43521 whole entry, looked up): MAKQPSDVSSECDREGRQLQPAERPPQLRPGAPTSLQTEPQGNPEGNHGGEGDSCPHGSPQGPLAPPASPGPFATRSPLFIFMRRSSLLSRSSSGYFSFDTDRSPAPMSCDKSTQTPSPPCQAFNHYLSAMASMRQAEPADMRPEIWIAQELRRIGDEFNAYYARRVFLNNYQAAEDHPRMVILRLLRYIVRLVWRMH
Chain of Induced myeloid leukemia cell differentiation protein Mcl-1/Bcl-2-like protein 11 (Homo sapiens) (Q07820 whole entry, looked up): as the sequence (Q07820 whole entry) above

SMILES	inhibition (Bcl-2-like protein 1 [1])	IC50 (HeLa [3])	IC50 (RS4-11 [4])	inhibition [6]	inhibition [7]	IC50 (HL-60 [9])	Activity [10]	Activity [11]	Activity [12]	Activity [13]	Activity [14]	Activity [15]	Activity [16]	Ki [17]	Activity (Bcl-2-like protein 1 [18])	viability at 20 µM (HeLa [8])	IC50 (HEK-293T)	other results
Cc1ccc(-c2ccsc2S(=O)(=O)NCCNC(=S)Nc2cccc([N+](=O)[O-])c2)c(Oc2ccc(O)c(O)c2)c1			6.1 µM			3.4 µM							inactive	7.5 µM	inactive	40%	7.9 µM	
COc1ccc(Oc2ccc([N+](=O)[O-])cc2-c2ccsc2S(=O)(=O)N2CCN(C(=S)Nc3ccc(Cl)cc3)CC2)cc1OC	37%	> 50 µM	> 50 µM	41%	18%	> 50 µM											> 50 µM	inhibition [21]: 30%
COc1ccc(Oc2ccccc2-c2ccsc2S(=O)(=O)NCCNC(=S)Nc2cc(C(F)(F)F)cc(C(F)(F)F)c2)cc1OC		6.4 µM	3.3 µM			2.8 µM							inactive		inactive		6.8 µM	Activity (RS4-11 [22]): Dose-Dependent Effect; inhibition (MCF7): 20%; Activity (RS4-11 [23]): 93.97%; Activity (RS4-11 [24]): 3.1%; Activity (RS4-11 [25]): Dose-Dependent Effect; Activity (RS4-11 [26]): 0.26%; viability at 20 µM (RS4-11 [27]): 2.6%; Activity (RS4-11 [28]): Dose-Dependent Effect
Cc1nn(C)c(COc2ccc(N3CCN(S(=O)(=O)N(C)C)CC3)cc2)c1-c1cccc2c(CCCOc3cccc4ccccc34)c(C(=O)O)n(CCN3CCOCC3)c12		> 20 µM	7.31 µM			2.46 µM	Active	Active	Active	Active	Active	Active	inactive	< 0.001 µM	inactive		> 20 µM	
O=[N+]([O-])c1ccc(NC(=S)NCCNS(=O)(=O)c2ccc(-c3ccccc3OCc3cccc(O)c3)s2)cc1			10.1 µM			10.8 µM							inactive		inactive	28%	> 20 µM	Activity [30]: inactive
Cc1ccc(-c2ccsc2S(=O)(=O)NCCNC(=O)Nc2cc(C(F)(F)F)cc(C(F)(F)F)c2)c(Oc2ccc(O)c(O)c2)c1		9.7 µM	5.6 µM			3.7 µM	Active	Active	Active	Active	Active	Active	inactive		inactive		> 20 µM	inhibition [21]: 70%; inhibition (MCF7): inactive; Activity (RS4-11 [23]): 75.04%; Activity (RS4-11 [24]): 12.98%; Activity (RS4-11 [26]): 3.19%; viability at 20 µM (RS4-11 [27]): 8.79%

Now from value to compound, other results behind:

inhibition (Bcl-2-like protein 1 [1])	IC50 (HeLa [3])	IC50 (RS4-11 [4])	inhibition [6]	inhibition [7]	IC50 (HL-60 [9])	Activity [10]	Activity [11]	Activity [12]	Activity [13]	Activity [14]	Activity [15]	Activity [16]	Ki [17]	Activity (Bcl-2-like protein 1 [18])	SMILES	viability at 20 µM (HeLa [8])	IC50 (HEK-293T)	other results
29%	> 50 µM	> 50 µM	66%	25%											COc1ccc(Oc2ccccc2-c2ccsc2S(=O)(=O)N2CCN(C(=S)Nc3cc(C(F)(F)F)cc(C(F)(F)F)c3)CC2)cc1OC			viability at 20 µM (HL-60 [2]): 38%; viability at 48 h, 20 µM [5]: 42%
28%		9 µM	81%	31%	5.3 µM										O=[N+]([O-])c1ccc(NC(=S)N2CCN(S(=O)(=O)c3sccc3-c3ccccc3Oc3ccc(O)c(O)c3)CC2)cc1	49%	> 20 µM	
14%	> 20 µM	9.5 µM	52%	12%	8.4 µM	Active	Active	Active	Active	Active	Active				O=[N+]([O-])c1ccc(Oc2ccc(O)c(O)c2)c(-c2ccsc2S(=O)(=O)N2CCN(C(=S)Nc3cc(C(F)(F)F)cc(C(F)(F)F)c3)CC2)c1		> 20 µM	
	> 50 µM	6.8 µM										inactive	0.36 µM	inactive	CC(C)c1ccc(Oc2ccc(O)c(O)c2)c(-c2ccsc2S(=O)(=O)NCCNC(=O)Nc2cc(C(F)(F)F)cc(C(F)(F)F)c2)c1		> 20 µM	viability at 20 µM (HL-60 [2]): 23%
	> 20 µM	3.7 µM			8.2 µM	Active	Active	Active	Active	Active	Active		2.1 µM		CC(C)c1ccc(Oc2ccc(O)c(O)c2)c(-c2ccsc2S(=O)(=O)NCCNC(=S)Nc2cc(C(F)(F)F)cc(C(F)(F)F)c2)c1		18.1 µM	Ki [19]: 2.4 µM; Ki (Bcl-2-like protein 1 [20]): 4.9 µM
-8%			47%	7%											O=C(Nc1cc(C(F)(F)F)cc(C(F)(F)F)c1)N1CCN(S(=O)(=O)c2sccc2-c2ccccc2Oc2ccc(O)c(O)c2)CC1	20%		viability at 20 µM (HL-60 [2]): 15%; viability at 20 µM (RS4-11 [29]): 10%; viability at 48 h, 20 µM [5]: 29%

Source: ChEMBL document CHEMBL5034015, “Structure-Based Optimization of 3-Phenyl-N-(2-(3-phenylureido)ethyl)thiophene-2-sulfonamide Derivatives as Selective Mcl-1 Inhibitors” (J Med Chem, 2021)
